Patent US20240408169A1 (priority 2023, published 2024)
*1 amine or outer side, *2 acyl side, *3 side chain or, on linkers, in order; H or OH if unused. Where a SMILES comes first, the peptide text is derived from it. Bridges are numbered along the chain shown (N, C = ends). [ ]: non-standard residue; d: D form. The star is where a group is joined. X205 = CC(C)C(=O)N1[C@@H]2COC[C@H]1C=C(c1ccc(F)cc1C[C@@H](C(=O)[*:2])N(C)[*:1])C2; X124 = CC(C)C(=O)N1[C@@H]2CC[C@H]1C=C(c1ccc(F)cc1C[C@@H](C(=O)[*:2])N(C)[*:1])C2; X157 = CN([C@@H](Cc1cc(Cl)ccc1-c1ccc(S(=O)(=O)N2CCOCC2)cc1)C(=O)[*:2])[*:1]; X198 = COC[C@H]1COCCN1c1ccc(-c2ccc(Cl)cc2C[C@@H](C(=O)[*:2])N(C)[*:1])cc1; X185 = CN([C@@H](Cc1cc(Cl)ccc1-c1ccc(N2CCOC(C)(C)C2)cc1)C(=O)[*:2])[*:1]; X140 = CN([C@@H](Cc1cc(Cl)ccc1-c1ccc(Oc2cccnc2)cc1)C(=O)[*:2])[*:1]; X141 = CN([C@@H](Cc1cc(Cl)ccc1C1=CCN(S(C)(=O)=O)C1)C(=O)[*:2])[*:1]; X167 = CN([C@@H](Cc1cc(F)ccc1C1=CCN(S(C)(=O)=O)CC1)C(=O)[*:2])[*:1]; X137 = CN([C@@H](Cc1cc(F)ccc1-c1cnn(S(C)(=O)=O)c1)C(=O)[*:2])[*:1]; X178 = CN([C@@H](Cc1cc(F)ccc1-c1cnn(C2CCOC2)c1)C(=O)[*:2])[*:1]; X166 = CN([C@@H](Cc1cc(F)ccc1C1=CC2COCC(C1)N2)C(=O)[*:2])[*:1]; X190 = CC(=O)N1CC(Oc2ncc(Cl)cc2C[C@@H](C(=O)[*:2])N(C)[*:1])C1; NMehhhLys(Me) = CN([C@@H](CCCCCCCN(C)[*:3])C(=O)[*:2])[*:1]; X117 = Cc1cc(-c2ccc(F)cc2C[C@@H](C(=O)[*:2])N(C)[*:1])cnn1; NMe3Pal(2-OcPr,5-F) = CN[C@@H](Cc1cc(F)cnc1OC1CC1)C(=O)O; X163 = CN([C@@H](Cc1cc(Cl)ccc1N1CCOCC1)C(=O)[*:2])[*:1]; NMe(hhhLys) = CN([C@@H](CCCCCCCN[*:3])C(=O)[*:2])[*:1]; Oxane2carbonyl(2R-CF3) = O=C([C@@]1(C(F)(F)F)CCCCO1)*; cBuCO(3,3-F2-1-CF3) = O=C(C1(C(F)(F)F)CC(F)(F)C1)*; Pro(trans-4-F) = O=C(O)[C@@H]1C[C@@H](F)CN1; Gly(cPr) = N[C@H](C(=O)O)C1CC1

Tests used:
CyclinE1/CDK2 = target: T1, CyclinE1/CDK2 (Homo sapiens, UniProt P24864); assay: Fluorescence Polarization (FP) competitive binding assay, Cyclin E1/Cdk2; settings: 10 nM Cyclin E1/Cdk2, 2 nM FAM probe; average of 2-3 independent experiments; read-out: Cyclin E FP IC50;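 note: readings taken after two-hour equilibration at room temperature in HEPES buffer with NaCl, DTT, NP-40 and BSA, IC50 fitted from eight-concentration serial dilution series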
T1 construct: purchased Eurofins, discovery 14-475

NCI-H1048 cells = assay: MTT proliferation assay, NCI-H1048; assay type: cell-based; settings: 5 days compound exposure, 1:3 serial dilution starting at 10 μM;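 note: Dose-response in 96-well plates over 8 or 10 concentration points, with exposure spanning 3-4 cell doublings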
CyclinA2/CDK2 = target: T2, CyclinA2/CDK2 (Homo sapiens, UniProt P20248); assay: Fluorescence Polarization (FP) competitive binding assay, Cyclin A2/Cdk2; settings: 8 nM Cyclin A2/Cdk2, 2 nM FAM probe; average of 2-3 independent experiments; read-out: Cyclin A FP IC50;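 note: plates equilibrated two hours at room temperature before polarization reading, IC50 fitted from eight-concentration compound titration curves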
T2 construct: purchased CRELUX Protein Services

CyclinB1/CDK1 = target: T3, CyclinB1/CDK1 (Homo sapiens, UniProt P14635); assay: Fluorescence Polarization (FP) competitive binding assay, Cyclin B1/Cdk1; settings: 10 nM Cyclin B1/Cdk1, 2 nM FAM probe; average of 2-3 independent experiments; read-out: Cyclin B FP IC50;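 note: fluorescence polarization read after equilibration at room temperature, with IC50 taken from serially diluted dose-response curves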
T3 construct: purchased Eurofins, discovery 14-450

OVCAR3 cells = assay: MTT proliferation assay, OVCAR3; assay type: cell-based; settings: 5 days compound exposure, 1:3 serial dilution starting at 10 μM;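 note: compound given as an 8- or 10-point series, one day after plating, with exposure covering roughly 3-4 cell doublings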

Row | Structure (SMILES) | IC50 (CyclinE1/CDK2) | GI50 (NCI-H1048 cells) | IC50 (CyclinA2/CDK2) | IC50 (CyclinB1/CDK1) | GI50 (OVCAR3 cells)
1 | COC[C@H]1COCCN1c1ccc(-c2ccc(Cl)cc2C[C@H]2C(=O)N(C)CCCCCCC[C@H](N(C)C(=O)[C@@H](NC(=O)[C@@H]3C[C@@H](F)CN3C(=O)C3(C(F)(F)F)CC(F)(F)C3)C3CC3)C(=O)N[C@@H](CC(C)C)C(=O)N2C)cc1 [Example 373] ({cBuCO(3,3-F2-1-CF3)}-[Pro(trans-4-F)][Gly(cPr)][NMehhhLys(Me)]L[X198]; lactam 3-C) | 480 nM | 10 nM | 20 nM | 20 nM | 10 nM
2 | CC(C)C[C@@H]1NC(=O)[C@@H](N(C)C(=O)[C@@H](NC(=O)[C@@H]2C[C@@H](F)CN2C(=O)C2(C(F)(F)F)CC(F)(F)C2)C2CC2)CCCCCCCN(C)C(=O)[C@H](Cc2cc(F)ccc2C2=CC3COCC(C2)N3)N(C)C1=O (stereo partly drawn) [Example 166] ({cBuCO(3,3-F2-1-CF3)}-[Pro(trans-4-F)][Gly(cPr)][NMehhhLys(Me)]L[X166]; lactam 3-C) | 2300 nM | 40 nM | 60 nM | 20 nM | 100 nM
3 | Cc1cc(-c2ccc(F)cc2C[C@H]2C(=O)N(C)CCCCCCC[C@H](N(C)C(=O)[C@@H](NC(=O)[C@@H]3C[C@@H](F)CN3C(=O)C3(C(F)(F)F)CC(F)(F)C3)C3CC3)C(=O)N[C@@H](CC(C)C)C(=O)N2C)cnn1 [Example 293] ({cBuCO(3,3-F2-1-CF3)}-[Pro(trans-4-F)][Gly(cPr)][NMehhhLys(Me)]L[X117]; lactam 3-C) | 1990 nM | 50 nM | 100 nM | 20 nM | 90 nM
4 | CC(C)C[C@@H]1NC(=O)[C@@H](N(C)C(=O)[C@@H](NC(=O)[C@@H]2C[C@@H](F)CN2C(=O)C2(C(F)(F)F)CC(F)(F)C2)C2CC2)CC=CCCCCN(C)C(=O)[C@H](Cc2cc(F)ccc2-c2cncnc2)N(C)C1=O [Example 38] | 1760 nM | 60 nM | 180 nM | 20 nM | 160 nM
5 | CC(=O)N1CC(Oc2ncc(Cl)cc2C[C@H]2C(=O)N(C)CCCCCCC[C@H](N(C)C(=O)[C@@H](NC(=O)[C@@H]3C[C@@H](F)CN3C(=O)C3(C(F)(F)F)CC(F)(F)C3)C3CC3)C(=O)N[C@@H](CC(C)C)C(=O)N2C)C1 [Example 324] ({cBuCO(3,3-F2-1-CF3)}-[Pro(trans-4-F)][Gly(cPr)][NMehhhLys(Me)]L[X190]; lactam 3-C) | 520 nM | 40 nM | 60 nM | 20 nM | 80 nM
6 | CC(C)C[C@@H]1NC(=O)[C@@H](N(C)C(=O)[C@@H](NC(=O)[C@@H]2C[C@@H](F)CN2C(=O)C2(C(F)(F)F)CC(F)(F)C2)C2CC2)CCCCCCCN(C)C(=O)[C@H](Cc2cc(F)ccc2C2=C[C@@H]3COC[C@H](C2)N3C(=O)C(C)C)N(C)C1=O [Example 329] ({cBuCO(3,3-F2-1-CF3)}-[Pro(trans-4-F)][Gly(cPr)][NMehhhLys(Me)]L[X205]; lactam 3-C) | 250 nM | 10 nM | 20 nM | 20 nM | 10 nM
7 | CC(C)C[C@@H]1NC(=O)[C@@H](N(C)C(=O)[C@@H](NC(=O)[C@@H]2C[C@@H](F)CN2C(=O)C2(C(F)(F)F)CC(F)(F)C2)C2CC2)CCCCCCCN(C)C(=O)[C@H](Cc2cc(F)ccc2C2=C[C@@H]3CC[C@H](C2)N3C(=O)C(C)C)N(C)C1=O [Example 317] ({cBuCO(3,3-F2-1-CF3)}-[Pro(trans-4-F)][Gly(cPr)][NMehhhLys(Me)]L[X124]; lactam 3-C) | 250 nM | 10 nM | 30 nM | 20 nM | 10 nM
8 | CC(C)C[C@@H]1NC(=O)[C@@H](N(C)C(=O)[C@@H](NC(=O)[C@@H]2C[C@@H](F)CN2C(=O)C2(C(F)(F)F)CC(F)(F)C2)C2CC2)CCCCCCCN(C)C(=O)[C@H](Cc2cc(Cl)ccc2C2=CCN(S(C)(=O)=O)C2)N(C)C1=O [Example 309] ({cBuCO(3,3-F2-1-CF3)}-[Pro(trans-4-F)][Gly(cPr)][NMehhhLys(Me)]L[X141]; lactam 3-C) | 930 nM | 10 nM | 20 nM | 20 nM | 10 nM
9 | CC(C)C[C@@H]1NC(=O)[C@@H](N(C)C(=O)[C@@H](NC(=O)[C@@H]2C[C@@H](F)CN2C(=O)C2(C(F)(F)F)CC(F)(F)C2)C2CC2)CC=CCCCCN(C)C(=O)[C@H](Cc2cc(Cl)ccc2Oc2ncccn2)N(C)C1=O [Example 153] | 1000 nM | 110 nM | 470 nM | 20 nM | 140 nM
10 | CC(C)C[C@@H]1NC(=O)[C@@H](N(C)C(=O)[C@@H](NC(=O)[C@@H]2C[C@@H](F)CN2C(=O)C2(C(F)(F)F)CC(F)(F)C2)C2CC2)CCCCCCCN(C)C(=O)[C@H](Cc2cc(Cl)ccc2-c2ccc(Oc3cccnc3)cc2)N(C)C1=O [Example 385] ({cBuCO(3,3-F2-1-CF3)}-[Pro(trans-4-F)][Gly(cPr)][NMehhhLys(Me)]L[X140]; lactam 3-C) | 1630 nM | 30 nM | 20 nM | 20 nM | 20 nM
11 | CC(C)C[C@@H]1NC(=O)[C@@H](N(C)C(=O)[C@@H](NC(=O)[C@@H]2C[C@@H](F)CN2C(=O)C2(C(F)(F)F)CC(F)(F)C2)C2CC2)CC=CCCCCN(C)C(=O)[C@H](Cc2cc(F)ccc2-c2cnn(C3CCOC3)c2)N(C)C1=O (some centres unmarked) [Example 85] | 280 nM | 20 nM | 60 nM | 20 nM | 20 nM
12 | CC(C)C[C@@H]1NC(=O)[C@@H](N(C)C(=O)[C@@H](NC(=O)[C@@H]2C[C@@H](F)CN2C(=O)C2(C(F)(F)F)CC(F)(F)C2)C2CC2)CCCCCCCN(C)C(=O)[C@H](Cc2cc(F)ccc2C2=CCN(S(C)(=O)=O)CC2)N(C)C1=O [Example 100] ({cBuCO(3,3-F2-1-CF3)}-[Pro(trans-4-F)][Gly(cPr)][NMehhhLys(Me)]L[X167]; lactam 3-C) | 450 nM | 20 nM | 20 nM | 20 nM | 20 nM
13 | CCN1CCCCCCC[C@H](N(C)C(=O)[C@@H](NC(=O)[C@@H]2C[C@@H](F)CN2C(=O)C2(C(F)(F)F)CC(F)(F)C2)C2CC2)C(=O)N[C@@H](CC(C)C)C(=O)N(C)[C@@H](Cc2cc(Cl)ccc2-c2ccc(N3CCOCC3)cc2)C1=O [Example 404] | 1530 nM | 20 nM | 20 nM | 20 nM | 30 nM
14 | CC(C)C[C@@H]1NC(=O)[C@@H](N(C)C(=O)[C@@H](NC(=O)[C@@H]2C[C@@H](F)CN2C(=O)C2(C(F)(F)F)CC(F)(F)C2)C2CC2)CCCCCCCN(C)C(=O)[C@H](Cc2cc(Cl)ccc2-c2ccc(S(=O)(=O)N3CCOCC3)cc2)N(C)C1=O [Example 354] ({cBuCO(3,3-F2-1-CF3)}-[Pro(trans-4-F)][Gly(cPr)][NMehhhLys(Me)]L[X157]; lactam 3-C) | 1340 nM | 10 nM | 30 nM | 20 nM | 20 nM
15 | CC(C)C[C@@H]1NC(=O)[C@@H](N(C)C(=O)[C@@H](NC(=O)[C@@H]2C[C@@H](F)CN2C(=O)C2(C(F)(F)F)CC(F)(F)C2)C2CC2)CCCCCCCN(C)C(=O)[C@H](Cc2cc(Cl)ccc2-c2ccc(N3CCOC(C)(C)C3)cc2)N(C)C1=O [Example 366] ({cBuCO(3,3-F2-1-CF3)}-[Pro(trans-4-F)][Gly(cPr)][NMehhhLys(Me)]L[X185]; lactam 3-C) | 1050 nM | 20 nM | 20 nM | 20 nM | 20 nM
16 | CC(C)C[C@@H]1NC(=O)[C@@H](N(C)C(=O)[C@@H](NC(=O)[C@@H]2C[C@@H](F)CN2C(=O)C2(C(F)(F)F)CC(F)(F)C2)C2CC2)CCCCCCCN(C)C(=O)[C@H](Cc2cc(Cl)ccc2N2CCOCC2)N(C)C1=O [Example 319] ({cBuCO(3,3-F2-1-CF3)}-[Pro(trans-4-F)][Gly(cPr)][NMehhhLys(Me)]L[X163]; lactam 3-C) | 1350 nM | 10 nM | 30 nM | 20 nM | 20 nM
17 | CC(C)C[C@@H]1NC(=O)[C@@H](N(C)C(=O)[C@@H](NC(=O)[C@@H]2C[C@@H](F)CN2C(=O)[C@@]2(C(F)(F)F)CCCCO2)C2CC2)CCCCCCCN(C)C(=O)[C@H](Cc2cc(F)ccc2-c2cnn(S(C)(=O)=O)c2)N(C)C1=O [Example 303] ({Oxane2carbonyl(2R-CF3)}-[Pro(trans-4-F)][Gly(cPr)][NMehhhLys(Me)]L[X137]; lactam 3-C) | 100 nM | 10 nM | 30 nM | 20 nM | 10 nM
18 | CC(C)C[C@@H]1NC(=O)[C@@H](N(C)C(=O)[C@@H](NC(=O)[C@@H]2C[C@@H](F)CN2C(=O)C2(C(F)(F)F)CC(F)(F)C2)C2CC2)CCCCCCCNC(=O)[C@H](Cc2cc(F)cnc2OC2CC2)N(C)C1=O [Example 127] ({cBuCO(3,3-F2-1-CF3)}-[Pro(trans-4-F)][Gly(cPr)][NMe(hhhLys)]L[NMe3Pal(2-OcPr,5-F)]; lactam 3-C) | 230 nM | 30 nM | 80 nM | 20 nM | 30 nM
19 | CC(C)C[C@@H]1NC(=O)[C@@H](N(C)C(=O)[C@@H](NC(=O)[C@@H]2C[C@@H](F)CN2C(=O)C2(C(F)(F)F)CC(F)(F)C2)C2CC2)CCCCCCCN(C)C(=O)[C@H](Cc2cc(F)ccc2-c2cnn(C3CCOC3)c2)N(C)C1=O (stereo partly drawn) [Example 94] ({cBuCO(3,3-F2-1-CF3)}-[Pro(trans-4-F)][Gly(cPr)][NMehhhLys(Me)]L[X178]; lactam 3-C) | 180 nM | 10 nM | 20 nM | 20 nM | 10 nM
